From article PMC8541633, “A Novel Statin Compound from Monacolin J Produced Using CYP102A1-Catalyzed Regioselective C-Hydroxylation” (Pharmaceuticals, 2021)

What was measured:
CYP3A4 = target: T1, CYP3A4 (Homo sapiens, UniProt P08684); experiment: hydroxylation by recombinant CYP3A4 membranes, HPLC and LC-MS (turnover rate); format: biochemical
T1 construct: recombinant, E. coli membrane fractions; with rat NADPH-P450 reductase (CPR)

HMG-CoA reductase = target: T2, HMG-CoA reductase (Homo sapiens, UniProt P04035); experiment: HMG-CoA reductase assay kit (Sigma-Aldrich), spectrophotometry at […] nm; format: biochemical
T2 construct: gene HMGCR
T2 sequence (P04035 1-888): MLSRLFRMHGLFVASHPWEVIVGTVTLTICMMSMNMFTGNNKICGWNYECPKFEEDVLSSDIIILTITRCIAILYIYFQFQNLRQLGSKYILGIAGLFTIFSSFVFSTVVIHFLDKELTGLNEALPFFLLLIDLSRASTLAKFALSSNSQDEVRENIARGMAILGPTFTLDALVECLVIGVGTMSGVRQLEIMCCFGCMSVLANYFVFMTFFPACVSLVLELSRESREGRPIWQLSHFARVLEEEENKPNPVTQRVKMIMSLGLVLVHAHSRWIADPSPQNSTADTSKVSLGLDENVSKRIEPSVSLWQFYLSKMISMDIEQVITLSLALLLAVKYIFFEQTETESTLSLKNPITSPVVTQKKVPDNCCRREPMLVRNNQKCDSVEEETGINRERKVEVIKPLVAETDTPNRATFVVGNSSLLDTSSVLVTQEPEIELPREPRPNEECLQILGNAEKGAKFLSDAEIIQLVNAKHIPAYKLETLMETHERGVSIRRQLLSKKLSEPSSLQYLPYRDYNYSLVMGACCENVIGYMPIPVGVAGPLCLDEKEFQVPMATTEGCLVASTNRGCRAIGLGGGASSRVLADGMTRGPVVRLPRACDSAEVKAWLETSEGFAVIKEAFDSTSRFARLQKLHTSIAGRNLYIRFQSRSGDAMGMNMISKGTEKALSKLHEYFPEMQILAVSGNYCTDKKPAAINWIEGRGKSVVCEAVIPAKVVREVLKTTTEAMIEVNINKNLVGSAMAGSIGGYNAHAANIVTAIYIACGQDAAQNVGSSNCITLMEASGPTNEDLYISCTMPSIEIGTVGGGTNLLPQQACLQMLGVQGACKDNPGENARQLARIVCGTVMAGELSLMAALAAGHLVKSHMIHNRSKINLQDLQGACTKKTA

T1 sequence (P08684 2-503): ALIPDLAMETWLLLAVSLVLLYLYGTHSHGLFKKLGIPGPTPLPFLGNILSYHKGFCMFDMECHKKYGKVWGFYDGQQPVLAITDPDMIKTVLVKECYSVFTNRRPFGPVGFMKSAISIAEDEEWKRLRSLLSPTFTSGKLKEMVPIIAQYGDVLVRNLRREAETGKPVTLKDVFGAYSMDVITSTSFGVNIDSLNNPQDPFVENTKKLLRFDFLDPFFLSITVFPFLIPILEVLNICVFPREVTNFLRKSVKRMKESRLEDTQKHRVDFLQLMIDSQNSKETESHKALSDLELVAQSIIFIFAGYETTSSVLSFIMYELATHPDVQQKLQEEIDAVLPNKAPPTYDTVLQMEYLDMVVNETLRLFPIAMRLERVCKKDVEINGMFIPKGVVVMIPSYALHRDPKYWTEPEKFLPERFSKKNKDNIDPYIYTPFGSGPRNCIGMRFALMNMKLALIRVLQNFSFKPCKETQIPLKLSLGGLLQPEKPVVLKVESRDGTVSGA
T1 sequence (P00388 2-678, further chain): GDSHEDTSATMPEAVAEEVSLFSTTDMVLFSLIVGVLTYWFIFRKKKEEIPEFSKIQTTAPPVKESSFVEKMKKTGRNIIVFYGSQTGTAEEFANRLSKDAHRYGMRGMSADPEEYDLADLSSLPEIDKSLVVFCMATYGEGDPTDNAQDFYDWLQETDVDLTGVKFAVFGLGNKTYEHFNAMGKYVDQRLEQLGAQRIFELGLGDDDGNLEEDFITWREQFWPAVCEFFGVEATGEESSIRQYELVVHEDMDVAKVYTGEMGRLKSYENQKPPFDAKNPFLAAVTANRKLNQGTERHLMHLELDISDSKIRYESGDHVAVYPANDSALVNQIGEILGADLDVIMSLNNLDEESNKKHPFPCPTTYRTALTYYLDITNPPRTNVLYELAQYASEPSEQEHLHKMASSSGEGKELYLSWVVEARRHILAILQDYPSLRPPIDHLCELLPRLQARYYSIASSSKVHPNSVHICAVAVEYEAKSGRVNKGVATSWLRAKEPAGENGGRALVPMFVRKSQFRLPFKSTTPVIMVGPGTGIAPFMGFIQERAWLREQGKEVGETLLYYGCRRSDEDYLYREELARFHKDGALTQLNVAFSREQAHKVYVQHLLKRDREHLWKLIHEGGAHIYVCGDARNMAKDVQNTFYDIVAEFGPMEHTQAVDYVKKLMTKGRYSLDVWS

IC50 (HMG-CoA reductase) [µM]	Structure (SMILES)	hydroxylation by recombinant CYP3A4 membranes, HPLC and LC-MS (turnover rate) (CYP3A4)
	C[C@H]1C=C2C=C[C@H](C)[C@H](CC[C@@H]3C[C@@H](O)CC(=O)O3)[C@H]2[C@@H](O)C1 [monacolin J]	0.040 nmol product min^−1 nmol P450^−1
285	C[C@H]1C=CC2=C[C@H](CO)C[C@H](O)[C@@H]2[C@H]1CC[C@@H]1C[C@@H](O)CC(=O)O1 [6′a-hydroxymethyl monacolin J]	
